{"source": "patent US5622498A", "about": "“Method for the treatment of periodontal disease by sustained delivery of a therapeutic agent to the periodontal pocket, composition of matter therefor and apparatus for the administration thereof” (priority 1993, dated 1997)", "key": {"[1]": {"conditions": "dog, in vivo", "text": "Pharmacokinetic investigation of minocycline-containing periodontal microcapsules was undertaken to produce a dosage form that could be administered to the periodontal pocket and that would yield minocycline concentrations exceeding the MIC's (0.05-1.56 mcg/ml) for organisms associated with periodontal disease for extended periods of time. Therefore, a study to evaluate four different minocycline periodontal formulations relative to determining minocycline levels in crevicular fluid was conducted in a dog model. The study utilized beagle dogs with surgically created \"chronic\" intrabony periodontal defects. […]\nIn sequence, the defects were created as follows: First, the lower fourth premolars were extracted, sockets were allowed to heal for one month, and dogs received a full mouth scaling and tooth cleaning. […] Dogs were monitored for an additional four weeks.\nFor evaluation of crevicular levels of minocycline, dogs were placed under general anesthesia, and the various formulations were administered into the periodontal pockets associated with the created defects. […] The strip was then removed, and the relative amount of fluid was determined by a Periotron 6000 instrument. […]\nSamples of gingival fluid are collected as described above, and analyzed. […]"}, "[2]": {"tested_on": "organisms associated with periodontal disease", "conditions": "cited from earlier work"}, "[3]": {"tested_on": "gram-positive and gram-negative organisms", "conditions": "cited from earlier work"}}, "data": [{"smiles": "CN(C)c1ccc(O)c2c1C[C@H]1C[C@H]3[C@H](N(C)C)C(O)=C(C(N)=O)C(=O)[C@@]3(O)C(O)=C1C2=O", "note": "[minocycline, 7-dimethylamino-6-deoxy-6-demethyltetracycline]", "values": [{"measurement": "period for which minimum inhibitory concentrations (MIC's) can be achieved", "setting": "[1]", "value": "up to two"}, {"measurement": "MIC", "setting": "[2]", "value": "0.05 to 1.56", "unit": "µg/mL"}, {"measurement": "antibacterial activity", "setting": "[3]", "value": "activity against a wide range of gram-positive and gram-negative organisms"}]}]}
